# Reference: BindingDB's records for doi:10.1016/S0960-894X(97)10088-9 (1997)
# Experiment: Compound was evaluated for inhibitory activity against Isoleucyl-tRNA synthetase
row,IC50,SMILES
1,300 nM,"COC(=O)CCCCCCCCOC(=O)/C=C/C[C@@H]1OC[C@H](NS(=O)(=O)c2cccc(Cl)c2)[C@@H](O)[C@H]1O [9-{(E)-4-[(2S,3R,4R,5S)-5-(3-Chloro-benzenesulfonylamino)-3,4-dihydroxy-tetrahydro-pyran-2-yl]-but-2-enoyloxy}-nonanoic acid methyl ester]"
2,100 nM,"COC(=O)CCCCCCCCOC(=O)/C=C/C[C@@H]1OC[C@H](NS(=O)(=O)CCCCl)[C@@H](O)[C@H]1O [9-{(E)-4-[(2S,3R,4R,5S)-5-(3-Chloro-propane-1-sulfonylamino)-3,4-dihydroxy-tetrahydro-pyran-2-yl]-but-2-enoyloxy}-nonanoic acid methyl ester]"
3,300 nM,"CCCCS(=O)(=O)N[C@H]1CO[C@@H](C/C=C/C(=O)OCCCCCCCCC(=O)OC)[C@H](O)[C@@H]1O [9-{(E)-4-[(2S,3R,4R,5S)-5-(Butane-1-sulfonylamino)-3,4-dihydroxy-tetrahydro-pyran-2-yl]-but-2-enoyloxy}-nonanoic acid methyl ester]"
